# Measured values from ChEMBL document CHEMBL1150465, “DNA topoisomerase II inhibition by substituted 1,2,3,4-tetrahydro--carboline derivatives” (Bioorg Med Chem Lett, 1994).
# Calls of active or inactive are those of the source. The calls are words filed in the database; no cut-off is given here.
# Legend:
# [1] = biological target: T1, DNA topoisomerase II (Homo sapiens) (UniProt P11388+Q02880); experiment: Compound was tested for DNA Topoisomerase II mediated cleavage of DNA; Each (+) indicates 1 to 2 -fold increase; format: protein assay
# Nucleic Acid [2] = experiment: DNA intercalating activity was determined; Each (+) indicates 1 to 2 -fold increase; format: functional
# [3] = biological target: T1, DNA topoisomerase II (Homo sapiens); experiment: Compound was tested for DNA Topoisomerase II mediated cleavage of DNA; Each + indicates 2 to 4 fold increase; format: protein assay
# [4] = biological target: T1, DNA topoisomerase II (Homo sapiens); experiment: Compound was tested for DNA Topoisomerase II mediated cleavage of DNA; No increase; format: protein assay
# [5] = biological target: T1, DNA topoisomerase II (Homo sapiens); experiment: Compound was tested for DNA Topoisomerase II mediated cleavage of DNA; inactive; format: protein assay
# Nucleic Acid [6] = experiment: DNA intercalating activity was determined; Each + indicates a 2 to 4 fold increase; format: functional
smiles,measurement,setting,value
COC(=O)N1CCc2c([nH]c3ccccc23)C1c1ccc(NS(C)(=O)=O)c(OC)c1 (configuration not stated),Activity,[1],+
COC(=O)N1CCc2c([nH]c3ccccc23)C1c1cc(OC)c(O)c(OC)c1 (stereo in doubt; 5),Activity,Nucleic Acid [2],(+)
same,Activity,[3],denotes 2 to 4 fold increase
COC(=O)N1CCc2cc3c(cc2C1c1cc(OC)c(O)c(OC)c1)OCO3 (configuration not stated),Activity,[4],No increase
COc1cc(C2C3Nc4ccccc4C3CC3CCC(=O)N32)cc(OC)c1O (configuration not stated),Activity,[3],++
COC(=O)N1CCc2c([nH]c3ccccc23)C1c1ccc(O)cc1 (configuration not stated),Activity,[5],inactive
COC(=O)N1CCc2c([nH]c3ccccc23)C1c1cc(OC)c(O)c(OC)c1 (stereo in doubt; 4),Activity,Nucleic Acid [6],denotes 2 to 4 fold increase
same,Activity,[3],++(+)
COC(=O)N1CCc2c([nH]c3ccccc23)C1c1cc(OC)c(OC)c(OC)c1 (configuration not stated),Activity,[5],inactive
COc1cc([C@@H]2c3cc4c(cc3[C@@H](O[C@@H]3O[C@@H]5CO[C@@H](C)O[C@H]5[C@H](O)[C@H]3O)[C@H]3COC(=O)[C@H]23)OCO4)cc(OC)c1O,Activity,Nucleic Acid [2],(+)
same,Activity,[3],++
COC(=O)N1CCc2c([nH]c3ccccc23)C1c1ccc(N)c(OC)c1 (configuration not stated),Activity,[1],+
